For one series, the system named is DNA. The series can be described thus: SOD activity in vitro in the presence of DNA (DNA interaction). It counts as biochemical. The source says: The “ortho effect” also decreases the toxicity. It is well known that porphyrins, and particularly cationic porphyrins, interact with DNA and can act as DNA cleavers. This fact can be an issue in the use of metallo-porphyrins as anti-tumor drugs. The present mimetics avoid this interaction.
In order to maximize the decrease in toxicity due to interaction with DNA, two derivatives of the ortho compound have been prepared which carry four ethyl or four butyl groups (“4” and “5”, respectively).

The nature of series [1]: Water solubility of the chloride salt. The class given is physicochemical. The settings on record: micelles were not observed. On the procedure:
The same procedure described above was used. 0.92 mL of 1-iodobutane (100 eq) was added and the mixture stirred at 100° C. for 7 days. […] The elemental analysis was thus performed on the hexafluorophosphate salt (non-viscous). The chlorine salt is water-soluble (micelles were not observed). UV(H2O) of the chloride salt, ε454.0 1.21×10^5 M^−1cm^−1. Elemental analysis, calcd. For MnC56H60N8P5F30.H2O: C (40.94), H (3.80), N (6.82); found: C (41.15), H (4.35), N (6.52).

A short description of series [2]: SOD-like activity in vitro (xanthine/xanthine oxidase, ferricytochrome c; McCord and Fridovich). It counts as biochemical. The settings on record: Example VII. On the procedure:
(§1) SOD activity can be monitored in the presence and absence of EDTA using the method of McCord and Fridovich (J. Biol. Chem. 244:6049 (1969)). The efficacy of a mimetic can also be determined by measuring the effect of the mimetic on the aerobic growth of a SOD null E. coli strain versus a parental strain lacking the specific mutations. Specifically, parental E. coli (AB1157) and SOD null E. coli. (JI132) can be grown in M9 medium containing 0.2% casamino acids and 0.2% glucose at pH 7.0 and 37° C.; growth can be monitored in terms of turbidity followed at 700 nm.
The superoxide dismutase activity of the mimetics of the invention depends on a number of factors, including thermodynamic factors (eg the metal-centered redox-potential see FIG. 1)), and kinetic factors (eg electrostatic facilitation).
Superoxide dismuting activity. The SOD-like activities were measured using the xanthine/xanthine oxidase system as a source of O2^− and ferricytochrome c as its indicating scavenger (McCord et al, J. Biol. Chem. 244:6049 (1969)). O2— was produced at the rate of 1.2 μM per minute and reduction of ferricytochrome c was followed at 550 nm. Assays were conducted in presence of 0.1 mM EDTA in 0.05 M phosphate buffer (pH 7.8). Rate constants for the reaction of the compounds were based upon competition with […] cytochrome c, kcyt c=2.6×10^5 M^−1s^−1 (Butler et al, J. Biol. Chem. 257:10747 (1982)). All measurements were done at 25° C. Cytochrome c concentration was at least 10^3-fold higher than the concentrations of the SOD mimics and the rates were linear for at least two minutes, during which the compounds intercepted ˜100 equivalents of O2^−, thus confirming the catalytic nature of O2^− dismutation in presence of the mimics.
Superoxide dismuting activities. SOD-like activities were measured as described previously, based on competition with cytochrome c (McCord et al, J. Biol. Chem. 244:6049 (1969)). MnClxTE-2-PyP^5+ SOD-like activities are reported in Table 5, IC50 (M) representing the concentration for one unit of activity (or the concentration that causes 50% inhibition of cytochrome c reduction by O2^−) and kcat (M^−1s^−1) representing the rate constant for the superoxide dismutation reaction. The SOD-like activity per mole of MnCl4TE-2-PyP^5 is approximately 2-, 7- and 100-fold higher than MnOBTMPyP^4+, MnTM-2-PyP^5+ and MnTM-4PyP^5+, respectively (Faulkner et al, J. Biol. Chem. 269:23471 (1994); Batinic-Haberle et al, Arch. Biochem. Biophys. 343:225 (1997); Batinic-Haberle et al, J. Biol. Chem. 273:24521 (1998)). The SOD-like activity of MnCl4TE-2-PyP^5+ represents 20% of the activity of the Cu,Zn-SOD enzyme on a molar basis (40% per active site considering that the enzyme has two active sites) (Klug-Roth et al, J. Am. Chem. Soc. 95:2786 (1973)).

Series [3] is described as follows: Electrochemistry: metal-centered redox potential. The class given is physicochemical. The settings on record: vs NHE; listed as 2. On the procedure: Electrochemistry. The electrochemical characterization was performed as described previously on a Voltammetric Analyzer Model 600 (CH instrument) using a glassy carbon electrode (Ag/AgCl reference and Pt auxiliary electrodes), at 0.5 mM porphyrin, pH 7.8 (0.05 M phosphate buffer), 0.1 M NaCl. The potentials were standardized against potassium ferricyanide/potassium ferrocyanide couple (Batinic-Haberle et al, Arch. Biochem. Biophys. 343:225 (1997); Kolthof et al, J. Phys. Chem. 39:945 (1974)).
Electrochemistry. The metal-centered redox behavior of all metalloporphyrin products was reversible. The half-wave potentials (E^O1/2) were calculated as the average of the cathodic and anodic peaks and are given in mV vs NHE (Table 5). The average shift per chlorine is +55 mV (Table 5), which is in agreement with the values previously reported for H2TPP derivatives (between −50 and +70 mV) (Sen et al, Chem. Soc. Faraday Trans. 93:4281 (1997); Autret et al. J. Chem. Soc. Dalton Trans. 2793 (1996); Hariprasad et al, J. Chem. Soc. Dalton Trans. 3429 (1996); Tagliatesta et al, Inorg. Chem. 35:5570 (1996); Ghosh, J. Am. Chem. Soc. 117:4691 (1995); Takeuchi et al, J. Am. Chem. Soc. 116:9730 (1994); Binstead et al, Inorg. Chem. 30:1259 (1991); Giraudeau et al, J. Am. Chem. Soc. 101:3857 (1979)). This shift appears to be higher (˜+65 mV) between 0 and 1, and between 2 and 3 chlorines (Table 5). […] The manganese redox state of MnCl4TE-2-PyP^5 (E^O1/2=+448 mV) and MnOBTMPyP^4+ (E^O1.2=+480 mV) is 3+ and 2+, respectively. This difference may be explained by their difference in terms of redox potential (˜30 mV) but also by structural considerations, for instance an increased distortion of the porphyrin ring in the case of MnOBTMPyP^4+. (Batinic-Haberle et al, Arch. Biochem. Biophys. 343:225 (1997); Ochsenbein et al, Angew. Chem. Int. Ed. Engl. 33:348 (1994)).

For another series, the system named is SOD null E. coli (JI132). Description: Aerobic growth of SOD null E. coli strain versus parental strain. It counts as cell-based. As for the experimental part:
FIG. 3. SOD activity in vivo (E. coli) of 1, 2, 3* and 4* (20 μM) in minimal medium (mixture of atropoisomers, JI=SOD deficient strain, AB parental strain).
as §1
The activity in vivo of the mimetics of the invention can be tested on an E. coli strain deleted of the genes coding for both the MnSOD and FeSOD. In this assay, the efficacy of a mimetic is determined by measuring the effect of the mimetic on the aerobic growth of a SOD null E. coli strain versus a parental strain. Specifically, parental E. coli (AB1157) and SOD null E. coli. (JI132) are grown in M9 medium containing 0.2% casamino acids and 0.2% glucose at pH 7.0 and 37° C.; growth is monitored in terms of turbidity followed at 700 nm.

Turning to `CCCC[n+]1ccccc1-c1c2nc(c(-c3cccc[n+]3CCCC)c3ccc([n-]3)c(-c3cccc[n+]3CCCC)c3nc(c(-c4cccc[n+]4CCCC)c4ccc1[n-]4)C=C3)C=C2.[Mn+3]` [compound 5, manganic meso-tetrakis-(N-butylpyridinium-2-yl)porphyrin], the “toxicity due to interaction with DNA, comparison between ortho derivatives” value in the series with DNA (Table 2 and FIG. 3) is listed as “did not show a further decrease in toxicity”. For the same molecule, in series [1], the solubility in water entry was “water-soluble”.
Take “manganese(III) 5,10,15,20-tetrakis(N-methylpyridyl)porphyrin [MnTM-3-PyP^5+]”: the “rate of dismutation (kcat)” value in series [2] stood at 4.1e+06 M⁻¹ s⁻¹. Moreover, in the series on DNA (SOD activity in vitro in the presence of DNA), the “interaction with DNA” value was “greatly decreased”. For the same molecule, in series [3], the “E1/2 one-electron metal-centered redox-potential” value was “+0.042 V”. For the same molecule, the “aerobic growth (A700) of SOD null E. coli cells” value in the series with SOD null E. coli (JI132) (20 μM, glucose minimal medium (M9) plus 5 essential amino acids, JI132, listed as 2) is “increase in A700”. In addition, the “toxicity in vivo (E. coli)” value in the series on SOD null E. coli (JI132) (FIG. 3) is “decreased toxicity”.

For the origin of these results see patent publication US20080113956A1, “Substituted Porphyrins” (priority 1997, published 2008).
